Results published in PMC9505425, “Targeting of the Mitochondrial TET1 Protein by Pyrrolo[3,2-b]pyrrole Chelators” (International Journal of Molecular Sciences, 2022).
“And” between values parts separate entries of the source, which are not always exact repeats. Equal values may be shown once.

Columns and labels:
H-1299 cells = test: MTT cytotoxicity assay, H-1299; format: cell-based, human
Experimental: (§1) The effects of the tested compounds 1–6 on HF-P4, U-118 MG, H1299, BT-20, and Caov-3 cell lines were evaluated by the MTT assay during 48 h treatment (Table 2 and Tables S2–S31). In all tested compounds, we recognized a difference in cytotoxicity between healthy cells (HF-P4) and cancer cell lines (BT-20, Caov-3, and H-1299). […] In the case of ovarian cancer, the authors discovered oncogenic and poor prognosis roles of TET1 in epithelial ovarian carcinoma (EOC). TET1 is believed to demethylate the epigenome and activate numerous oncogenic pathways in EOC. The aforementioned study presents a new mechanism where TET1 contributes to tumor development through collaboration with CK2α [21]. The overexpression of the TET1 protein was also found in triple negative breast cancer and was associated with an activation of PI3K/mTOR pathway and decreased overall survival.
(§2) A human glioblastoma cell line (U118-MG) and a human non-small-cell lung carcinoma cell line (H1299) were used for the cytotoxicity assay (MTT). Both cell lines were generously supplied by Dr. M. Masařik, PhD, Department of Pathological physiology, Masaryk University, Czech Republic. U118-MG cells were cultivated under standard conditions in Dulbecco’s modified Eagle’s medium (ATCC, Manassas, VA, USA) supplemented with 10% FBS and streptomycin (100 μg/mL) at 37 °C at a 5% CO2 atmosphere. H1299 cells were cultivated under standard conditions in RPMI 1640 (BioTech, Prague, Czech Republic) medium supplemented with 10% FBS and streptomycin (100 μg/mL) at 37 °C at a 5% CO2 atmosphere.
(§3) For the cytotoxicity assay, we used the following cell lines: human glioblastoma cell line U118-MG, human mammary gland/breast cell line BT-20, human ovary adenocarcinoma cell line Caov-3, and non-small-cell lung carcinoma H-1299. As previously mentioned, these cell lines contain a high level of the TET1 protein, which corresponds to a lower overall survival. In addition to these cell cultures, we used the human dermal fibroblast cell line HF-P4 as a healthy control. Determination of cytotoxicity was performed using the MTT [3-(4,5-dimethylthiazol-2-yl)-2,5-diphenyltetrazolium bromide] colorimetric assay. Viable cells from each cell line were cultured in 96-well plates (VWR, Stříbrná Skalice, Czech Republic) at a density of 1.0 × 10^5 cells per well and allowed to grow for 24 h in 200 μL of recommended medium. After a 1-day incubation, the medium was replaced with solutions of compounds 1–6 at concentration ranges of 0.1–20 μM. Each concentration was measured four times within one test, and the entire test was repeated three times. Tested compounds 1–6 were dissolved in DMSO and then diluted with corresponding medium to a final volume of 200 μL (maximum 1% DMSO). After 48 h exposure, cells were treated with 175 μL of MTT solution (P-LAB, Prague, Czech Republic) for 2 h. In the next step, MTT solution was removed, and 125 μL of DMSO (Penta, Prague, Czech Republic) was added to solubilize dark crystals of formazan formed in intact cells, and absorbance was measured at 570 nm by the enzyme-linked immunoabsorbent assay reader Infinite® 200 PRO (Tecan, Männedorf, Switzerland). The final DMSO concentration was smaller than 1% (v/v). The absorbance of untreated cells was considered 100%, and IC50 values were calculated by the GraphPad Prism 8 software. As a parameter for cytotoxicity, we used a concentration that inhibits 50% of cell growth (IC50).

U-118 MG cells = test: MTT cytotoxicity assay, U-118 MG; format: cell-based, human; conditions: 48 h
Experimental: as §1, §2, §3

HF-P4 cells = test: MTT cytotoxicity assay, HF-P4; format: cell-based, human; conditions: 48 h; for Cell viability %: repeats
Experimental: as §1
(§4) A human dermal fibroblast cell line was used for intracellular localization and cytotoxicity assay (MTT). Human fibroblast cells HF-P4 (human fibroblasts—patient 4) are normal dermal fibroblasts, which were obtained from the residual skin of a healthy patient who underwent plastic surgery (with informed consent of the patient). HF-P4 cell lines were obtained from the Department of Plastic Surgery, Third Faculty of Medicine, Charles University and University Hospital Královské Vinohrady, Prague, Czech Republic, as described by Szabo et al., 2011, and Dvořánková et al., 2019 [88, 89], and have been processed in accordance with the relevant local ethics committee and the Declaration of Helsinki protection of patients’ rights and benefits with written and signed informed consent of each patient. Cells were cultivated under standard conditions in Dulbecco’s modified Eagle’s medium (ATCC, Manassas, VA, USA), supplemented with 10% FBS and streptomycin (100 μg/mL) at 37 °C at a 5% CO2 atmosphere.
as §3

[1] = MTT cytotoxicity assay, HF-P4; format: cell-based, human; conditions: human, HF-P4 normal human dermal fibroblasts, repeats, read-out: Cell viability %
Experimental: as §1, §4, §3

Cc1ccc(-n2c(-c3ccc(C(=O)N/N=C/c4ccccc4O)cc3)cc3c2cc(-c2ccc(C(=O)N/N=C/c4ccccc4O)cc2)n3-c2ccc(C)cc2)cc1 [Compound 6]
melting point: 332 to 333 °C
Cell viability % (H-1299 cells; H-1299, 100 nM, 48 h, repeats, 0.1 µM): 77.16% and 73.27%
Cell viability % (H-1299 cells; H-1299, 500 nM, 48 h, repeats, 0.5 µM): 69.88% and 74.98%
Cell viability % (H-1299 cells; H-1299, 750 nM, 48 h, repeats, 0.75 µM): 83.61% and 74.75%
Cell viability % (H-1299 cells; H-1299, 1 uM, 48 h, repeats, 1 µM): 86.38% and 69.89% and 61.2%
Cell viability % (H-1299 cells; H-1299, 2.5 uM, 48 h, repeats, 2.5 µM): 77.45% and 63.25% and 56.68%
Cell viability % (H-1299 cells; H-1299, 5 uM, 48 h, repeats, 5 µM): 69.4% and 77.63% and 53.79%
Cell viability % (H-1299 cells; H-1299, 7.5 uM, 48 h, repeats, 7.5 µM): 53.98% and 50.36%
Cell viability % (H-1299 cells; H-1299, 10 uM, 48 h, repeats, 10 µM): 52.11% and 46.79%
Cell viability % (H-1299 cells; H-1299, 15 uM, 48 h, repeats, 15 µM): 36.42% and 29.24%
Cell viability % (H-1299 cells; H-1299, 20 uM, 48 h, repeats, 20 µM): 33.42% and 31.6%
viability at 0.1 µM (H-1299 cells; Homo sapiens, NCI-H1299, 48 h, H-1299, 100 nM, repeats, read-out: Cell viability %): 74.6%
viability at 0.5 µM (H-1299 cells; Homo sapiens, NCI-H1299, 48 h, H-1299, 500 nM, repeats, read-out: Cell viability %): 82%
viability at 0.75 µM (H-1299 cells; Homo sapiens, NCI-H1299, 48 h, H-1299, 750 nM, repeats, read-out: Cell viability %): 90.2%
viability at 7.5 µM (H-1299 cells; Homo sapiens, NCI-H1299, 48 h, H-1299, 7.5 uM, repeats, read-out: Cell viability %): 63.7%
viability at 10 µM (H-1299 cells; Homo sapiens, NCI-H1299, 48 h, H-1299, 10 uM, repeats, read-out: Cell viability %): 54.8%
viability at 15 µM (H-1299 cells; Homo sapiens, NCI-H1299, 48 h, H-1299, 15 uM, repeats, read-out: Cell viability %): 38.7%
viability at 20 µM (H-1299 cells; Homo sapiens, NCI-H1299, 48 h, H-1299, 20 uM, repeats, read-out: Cell viability %): 34.4%
IC50 (H-1299 cells; Homo sapiens, NCI-H1299, MTT, 48 h): 14.6 µM
viability at 0.1 µM (U-118 MG cells; Homo sapiens, U-118-MG, U-118 MG, 100 nM, repeats, read-out: Cell viability %): 98.1%
viability at 0.5 µM (U-118 MG cells; Homo sapiens, U-118-MG, U-118 MG, 500 nM, repeats, read-out: Cell viability %): 73.5%
viability at 0.75 µM (U-118 MG cells; Homo sapiens, U-118-MG, U-118 MG, 750 nM, repeats, read-out: Cell viability %): 67.2%
viability at 1 µM (U-118 MG cells; Homo sapiens, U-118-MG, U-118 MG, 1 uM, repeats, read-out: Cell viability %): 68.4%
viability at 2.5 µM (U-118 MG cells; Homo sapiens, U-118-MG, U-118 MG, 2.5 uM, repeats, read-out: Cell viability %): 63%
viability at 5 µM (U-118 MG cells; Homo sapiens, U-118-MG, U-118 MG, 5 uM, repeats, read-out: Cell viability %): 59%
viability at 7.5 µM (U-118 MG cells; Homo sapiens, U-118-MG, U-118 MG, 7.5 uM, repeats, read-out: Cell viability %): 45.9%
viability at 10 µM (U-118 MG cells; Homo sapiens, U-118-MG, U-118 MG, 10 uM, repeats, read-out: Cell viability %): 49.6%
viability at 15 µM (U-118 MG cells; Homo sapiens, U-118-MG, U-118 MG, 15 uM, repeats, read-out: Cell viability %): 28%
viability at 20 µM (U-118 MG cells; Homo sapiens, U-118-MG, U-118 MG, 20 uM, repeats, read-out: Cell viability %): 22.5%
IC50 (U-118 MG cells; Homo sapiens, U-118-MG, MTT): 8.12 µM
Cell viability % (U-118 MG cells; U-118 MG, 100 nM, repeats, 0.1 µM): 91.37% and 92.92%
Cell viability % (U-118 MG cells; U-118 MG, 500 nM, repeats, 0.5 µM): 83.7778% and 86.55%
Cell viability % (U-118 MG cells; U-118 MG, 750 nM, repeats, 0.75 µM): 73.07% and 81.93%
Cell viability % (U-118 MG cells; U-118 MG, 1 uM, repeats): 80.41% and 81.53%
Cell viability % (U-118 MG cells; U-118 MG, 2.5 uM, repeats): 69.75% and 76.68%
Cell viability % (U-118 MG cells; U-118 MG, 5 uM, repeats): 63.22% and 58.23%
Cell viability % (U-118 MG cells; U-118 MG, 7.5 uM, repeats): 45.4% and 56.877%
Cell viability % (U-118 MG cells; U-118 MG, 10 uM, repeats): 51.17% and 52.19%
Cell viability % (U-118 MG cells; U-118 MG, 15 uM, repeats): 29.06% and 32.78%
Cell viability % (U-118 MG cells; U-118 MG, 20 uM, repeats): 18.64% and 22.51%
Cell viability % (HF-P4 cells; HF-P4, 100 nM, 0.1 µM): 114.4851% and 90.24% and 95.4%
Cell viability % (HF-P4 cells; HF-P4, 500 nM, 0.5 µM): 95.79% and 101.8289%
Cell viability % (HF-P4 cells; HF-P4, 750 nM, 0.75 µM): 92.17% and 90.68%
Cell viability % (HF-P4 cells; HF-P4, 1 uM, 1 µM): 84.11% and 85.78%
Cell viability % (HF-P4 cells; HF-P4, 2.5 uM, 2.5 µM): 75.58% and 74.71%
Cell viability % (HF-P4 cells; HF-P4, 5 uM, 5 µM): 73.0472% and 65.6%
Cell viability % (HF-P4 cells; HF-P4, 7.5 uM, 7.5 µM): 61.49% and 69.35%
Cell viability % (HF-P4 cells; HF-P4, 10 uM, 10 µM): 61.41% and 64.7001%
Cell viability % (HF-P4 cells; HF-P4, 15 uM, 15 µM): 54.9% and 58.15%
Cell viability % (HF-P4 cells; HF-P4, 20 uM, 20 µM): 42.62% and 43.54%
IC50 (HF-P4 cells; Homo sapiens, MTT): 16.4 µM
viability at 48 h, 0.5 µM ([1]; HF-P4, 500 nM): 103%
viability at 48 h, 0.75 µM ([1]; HF-P4, 750 nM): 97.8%
viability at 48 h, 1 µM ([1]; HF-P4, 1 uM): 84.4%
viability at 48 h, 2.5 µM ([1]; HF-P4, 2.5 uM): 94.5%
viability at 48 h, 5 µM ([1]; HF-P4, 5 uM): 84.3%
viability at 48 h, 7.5 µM ([1]; HF-P4, 7.5 uM): 62.3%
viability at 48 h, 10 µM ([1]; HF-P4, 10 uM): 66.1%
viability at 48 h, 15 µM ([1]; HF-P4, 15 uM): 62.5%
viability at 48 h, 20 µM ([1]; HF-P4, 20 uM): 48%
